Test results reported in US9694015B2, “Methods for the treatment of locally advanced breast cancer” (Celgene Corporation, priority 2012, dated 2017).
Where “and” joins values, the source holds several entries; their conditions need not be identical. Identical values can stand only once.

Key:
Aiolos [1] = molecular target: T1, Aiolos (Homo sapiens (Human), UniProt Q9UKT9); test: Aiolos expression with and without proteasome inhibitor; format: cell-based
Excerpt: It appeared that the inhibitory effect correlates with compound's anti-proleferative activity in myeloma cells.

Aiolos [2] = molecular target: T1, Aiolos; test: Aiolos expression by western blot at 6 hours; format: cell-based; details: western blot at 6 hours after the treatment
[3] = GLP 28-day toxicity study in monkey; format: in vivo
RANTES = test: LPS-stimulated hPBMC cytokine/chemokine production: RANTES enhancement; format: cell-based, human
[4] = test system: U87 (GBM), H929 (MM), WSU-DLCL2 and DOHH2 (NHL) xenografts; test: Xenografts, single agent; format: in vivo
IL-10 = test: LPS-stimulated hPBMC cytokine/chemokine production: IL-10 enhancement; format: cell-based, human
Excerpt: (§1) Data provided are IC50 (μM) values for the indicated cytokines

HIF1-α = test: Hypoxia-induced HIF1-α expression in solid tumor cell lines; format: cell-based; details: solid tumor cell lines (e.g., breast, ovarian, colorectal, HCC)
Aiolos [5] = molecular target: T1, Aiolos; test: Endogenous Aiolos in breast cancer cells (western blot); format: cell-based
Procedure: Cell lines (AU565, ZR 75-1, BT-474, EFM-192A, HCC1954, HCC70, MB436 and BT549) were maintained using standard cell culture techniques. For endogenous Aiolos expression, cells were seeded in a 6 well plate at 0.5×10^6 cells per well in a 3 mL volume of media. Cells were allowed to adhere to the plate overnight.
(§2) Cells were harvested and lysed in Pierce #89900 Ripa buffer containing 2× protease inhibitor cocktail from Pierce #78442. The lysate was applied to a QiaShredder to remove DNA. Total protein yield was measured using BioRad DC protein determination kit (Cat#500-0112). Lysates were stored at −80° C. until use. Samples were applied to BioRad Criterion PreCast gels, 10% (Bio-Rad#345-0010) and transferred to Bio-Rad Nitrocellulose/Filter Paper Sandwiches (#162-0233) for western blot analysis.

Ikaros = Ikaros (Homo sapiens (Human), UniProt Q13422); test: Ikaros expression by western blot at 6 hours; format: cell-based; details: western blot at 6 hours after the treatment
Aiolos [6] = molecular target: T1, Aiolos; test: Aiolos protein in myeloma cells; format: cell-based
[7] = GLP 28-day toxicity study in rat; format: in vivo
Aiolos [8] = molecular target: T1, Aiolos; test: Overexpressed flag-Aiolos-myc fusion protein in AU565 cells (western blot); format: cell-based
Procedure: In some experiments, cell lines were transfected with an Aiolos overexpression vector using Lipofectamine reagent in a batch method. Cells were seeded in a 12 well plate at 1×10^5 cells in a 3 mL volume per well. Where specified, cells were pretreated with MG132 at 10 uM for 1 hour, or DMSO was added as a control.
as §2

MCP-1 = test: LPS-stimulated hPBMC cytokine/chemokine production: MCP-1 enhancement; format: cell-based, human
Excerpt: as §1

tumor cells = test: Direct in vitro activity against tumor cells; format: cell-based
NFKB = NFKB DNA binding activity in DLBCL cells; format: cell-based

Q: Which results are given for `Cc1nc2cccc(N)c2c(=O)n1C1CCC(=O)NC1=O` (stereo not shown) [Compound A, 3-(5-amino-2-methyl-4-oxo-4H-quinazolin-3-yl)-piperidine-2,6-dione]?
A: expression of Aiolos (Aiolos [1]; absence of a proteasome inhibitor, 60, 120, 240, 500 and 100 nM): inhibit the expression of Aiolos; expression of Aiolos (Aiolos [1]; proteasome inhibitor present): little inhibition; expression of Aiolos (Aiolos [2]): inhibited; Monkey HNSTD ([3]; 28-day toxicity study, monkey): 6 mg/m^2; Monkey HNSTD (highest non-severely toxic dose), Animal Dose ([3]; 28-day toxicity study, monkey): 0.5 mg base/kg/day and 0.5 mg mg base/kg/day; HED (mg/person) from monkey HNSTD ([3]; 60-kg human body weight): 10 mg mg base/person; HED (mg/kg) from monkey HNSTD ([3]; human equivalent dose): 0.16 mg mg base/kg; Starting Dose (mg) from monkey HNSTD ([3]; safety factor 6): 1.7 mg mg base; RANTES (% of control) (RANTES): 131 % of control; single agent activity in xenografts [4]: single agent activity was observed; IL-10 (% of control) (IL-10): 480 % of control; HIF1α induction in response to hypoxia (HIF1-α): inhibits; endogenous Aiolos (Aiolos [5]; Her^2+ cells (AU565, BT-474, EFM-192A and HCC1954)): inhibited; levels of Aiolos (Aiolos [5]; ZR 75-1 and AU565 cell lines, 24 hours after the treatment): reduced the levels of Aiolos; expression of Ikaros (Ikaros): inhibited; inhibitory effect on Aiolos expression (Aiolos [6]): showed inhibitory effect; Rat STD10 (severely toxic dose in 10% of the animals), Animal Dose ([7]; 28-day toxicity study, rat): 300 mg mg base/kg/day; HED (mg/person) from rat STD10 ([7]; 60-kg human body weight): 2900 mg mg base/person; HED (mg/kg) from rat STD10 ([7]; human equivalent dose): 48 mg mg base/kg; Starting Dose (mg) from rat STD10 ([7]; safety factor 10): 290 mg mg base; time at which reduction of overexpressed Aiolos begins to show (Aiolos [8]; AU565 cells overexpressing flag-Aiolos-myc): about 5 hours; inhibition of Aiolos with proteasome inhibitor MG-132 (Aiolos [8]; addition of MG-132): rescued; MCP-1 (% of control) (MCP-1): 236 % of control; direct in vitro activity against tumor cells (tumor cells): limited direct in vitro activity; NFKB DNA binding activity (NFKB): partially inhibits
